Assay results taken from the supplement of paper PMC10307832.

Key:
Experiment in all cases: relative viability (nuclei count vs DMSO), 5 days (fraction); higher = more cells survive
[1] = tested on: LCLC-97TM1
In short: (§1)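 Each reported value is a median over duplicate plates. It expresses relative viability: treated-well nuclei count divided by vehicle-well nuclei count. Lung cancer cell lines in 1536-well plates were dosed by pin tool a day after seeding, alone with one drug or with a fixed anchor-drug dose plus five library-drug doses (not always all listed) in √10 steps, and nuclei were counted after 5 days.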

[2] = tested on: HARA
In short: as §1

[3] = tested on: EMC-BAC-2
In short: as §1

[4] = tested on: NCI-H1915
In short: as §1

[5] = tested on: PC-3 [JPC-3]
In short: as §1

[6] = tested on: NCI-H23
In short: as §1

[7] = tested on: NCI-H1437
In short: as §1

[8] = tested on: NCI-H322M
In short: as §1

[9] = tested on: NCI-H1793
In short: as §1

[10] = tested on: HCC-827
In short: as §1

[11] = tested on: EKVX
In short: as §1

[12] = tested on: HCC-15
In short: as §1

[13] = tested on: NCI-H2126
In short: as §1

[14] = tested on: NCI-H1944
In short: as §1

[15] = tested on: NCI-H441
In short: as §1

[16] = tested on: NCI-H661
In short: as §1

[17] = tested on: LU99A
In short: as §1

[18] = tested on: LC-2-ad
In short: as §1

[19] = tested on: SK-LU-1
In short: as §1

[20] = tested on: H3255
In short: as §1

[21] = tested on: NCI-H460
In short: as §1

[22] = tested on: ChaGo-K-1
In short: as §1

Cc1cnc(-c2cnc(NCCNc3ccc(C#N)cn3)nc2-c2ccc(Cl)cc2Cl)[nH]1 + O=C(CCCCCCC(=O)Nc1ccccc1)NO [Vorinostat] (partner 1 µM)
relative viability ([1]; first compound 0.08 µM): 0.712
relative viability ([1]; first compound 0.253 µM): 0.462
relative viability ([1]; first compound 0.8 µM): 0.515
relative viability ([1]; first compound 2.53 µM): 0.515
relative viability ([2]; first compound 0.08 µM): 0.659
relative viability ([2]; first compound 0.253 µM): 0.612
relative viability ([2]; first compound 0.8 µM): 0.487
relative viability ([2]; first compound 2.53 µM): 0.492
relative viability ([3]; first compound 0.08 µM): 0.46
relative viability ([3]; first compound 0.253 µM): 0.397
relative viability ([3]; first compound 0.8 µM): 0.373
relative viability ([3]; first compound 2.53 µM): 0.372
relative viability ([4]; first compound 0.08 µM): 0.532
relative viability ([4]; first compound 0.8 µM): 0.504
relative viability ([4]; first compound 2.53 µM): 0.513
relative viability ([5]; first compound 0.08 µM): 0.811
relative viability ([5]; first compound 0.253 µM): 0.713
relative viability ([5]; first compound 0.8 µM): 0.726
relative viability ([5]; first compound 2.53 µM): 0.838
relative viability ([6]; first compound 0.08 µM): 0.568
relative viability ([6]; first compound 0.253 µM): 0.475
relative viability ([6]; first compound 0.8 µM): 0.575
relative viability ([6]; first compound 2.53 µM): 0.529
relative viability ([7]; first compound 0.08 µM): 0.829
relative viability ([7]; first compound 0.253 µM): 0.774
relative viability ([7]; first compound 0.8 µM): 0.828
relative viability ([7]; first compound 2.53 µM): 0.853
relative viability ([8]; first compound 0.08 µM): 0.843
relative viability ([8]; first compound 0.253 µM): 0.878
relative viability ([8]; first compound 0.8 µM): 0.874
relative viability ([8]; first compound 2.53 µM): 1.53
relative viability ([9]; first compound 0.08 µM): 0.59
relative viability ([9]; first compound 0.253 µM): 0.666
relative viability ([9]; first compound 0.8 µM): 0.739
relative viability ([9]; first compound 2.53 µM): 0.864
relative viability ([10]; first compound 0.08 µM): 0.85
relative viability ([10]; first compound 0.253 µM): 0.306
relative viability ([10]; first compound 0.8 µM): 0.827
relative viability ([10]; first compound 2.53 µM): 0.871
relative viability ([11]; first compound 0.08 µM): 0.789
relative viability ([11]; first compound 0.253 µM): 0.529
relative viability ([11]; first compound 0.8 µM): 0.658
relative viability ([11]; first compound 2.53 µM): 0.745
relative viability ([12]; first compound 0.08 µM): 0.832
relative viability ([12]; first compound 0.253 µM): 0.818
relative viability ([12]; first compound 0.8 µM): 0.817
relative viability ([12]; first compound 2.53 µM): 0.829
relative viability ([13]; first compound 0.08 µM): 0.775
relative viability ([13]; first compound 0.253 µM): 0.695
relative viability ([13]; first compound 0.8 µM): 0.703
relative viability ([13]; first compound 2.53 µM): 0.819
relative viability ([14]; first compound 0.08 µM): 0.591
relative viability ([14]; first compound 0.8 µM): 0.614
relative viability ([14]; first compound 2.53 µM): 0.566
relative viability ([15]; first compound 0.08 µM): 0.823
relative viability ([15]; first compound 0.8 µM): 0.737
relative viability ([15]; first compound 2.53 µM): 0.738
relative viability ([16]; first compound 0.08 µM): 0.906
relative viability ([16]; first compound 0.253 µM): 0.774
relative viability ([16]; first compound 0.8 µM): 0.782
relative viability ([16]; first compound 2.53 µM): 0.731
relative viability ([17]; first compound 0.08 µM): 0.592
relative viability ([17]; first compound 0.253 µM): 0.523
relative viability ([17]; first compound 0.8 µM): 0.535
relative viability ([17]; first compound 2.53 µM): 0.559
relative viability ([18]; first compound 0.08 µM): 0.708
relative viability ([18]; first compound 0.8 µM): 0.705
relative viability ([18]; first compound 2.53 µM): 0.603
relative viability ([19]; first compound 0.08 µM): 0.735
relative viability ([19]; first compound 0.253 µM): 0.818
relative viability ([19]; first compound 0.8 µM): 0.849
relative viability ([19]; first compound 2.53 µM): 0.85
relative viability ([20]; first compound 0.08 µM): 0.599
relative viability ([20]; first compound 0.253 µM): 0.717
relative viability ([20]; first compound 0.8 µM): 0.754
relative viability ([20]; first compound 2.53 µM): 0.829
relative viability ([21]; first compound 0.08 µM): 0.71
relative viability ([21]; first compound 0.253 µM): 0.618
relative viability ([21]; first compound 0.8 µM): 0.625
relative viability ([21]; first compound 2.53 µM): 0.58
relative viability ([22]; first compound 0.08 µM): 0.742
relative viability ([22]; first compound 0.253 µM): 0.649
relative viability ([22]; first compound 0.8 µM): 0.604
relative viability ([22]; first compound 2.53 µM): 0.664
